The text below walks through data of ChEMBL document CHEMBL1124696, “Nucleoside peptides. 10. Synthesis and T-cell immunostimulatory properties of certain peptide derivatives of 6-azacadeguomycin” (1989).

Each structure is given as a SMILES string.

Common to all, as to type: functional
The species entered for assay [1] is Homo sapiens. As to the kind of experiment: Mitogen-induced human lymphocyte proliferation measured by incorporation of [3H]thymidine in lymphocytes with Pokeweed mitogen at a concentration of 1/2500 ug with compound at 1 uM.
Assay [2] is filed under the species Homo sapiens. As to the kind of experiment: Mitogen-induced human lymphocyte proliferation measured by incorporation of [3H]thymidine in lymphocytes with Pokeweed mitogen at a concentration of 1/2500 ug with compound at 400 uM.
The species named for assay [3] is Homo sapiens. Put plainly: Mitogen-induced human lymphocyte proliferation measured by incorporation of [3H]thymidine in lymphocytes with Pokeweed mitogen at a concentration of 1/2500 ug with compound at 50 uM.
For assay [4], the species on record is Homo sapiens. Put plainly: Mitogen-induced human lymphocyte proliferation measured by incorporation of [3H]thymidine in lymphocytes with Pokeweed mitogen at a concentration of 1/2500 ug with compound at 10 uM.
For assay [5], the species on record is Homo sapiens. As to the kind of experiment: Mitogen-induced human lymphocyte proliferation measured by incorporation of [3H]-thymidine in lymphocytes with Pokeweed mitogen at a concentration of 1/2500 ug with out compound.
The species entered for assay [6] is Homo sapiens. As to the kind of experiment: Mitogen-induced human lymphocyte proliferation measured by incorporation of [3H]thymidine in lymphocytes with Pokeweed mitogen at a concentration of 1/2500 ug with compound at 0.1 uM.
For assay [7], the species on record is Homo sapiens. As to the kind of experiment: Mitogen-induced human lymphocyte proliferation measured by incorporation of [3H]thymidine in lymphocytes with Phytohemagglutininin at a concentration of 0.125 ug with out compound.
For assay [8], the species on record is Homo sapiens. Put plainly: Mitogen-induced human lymphocyte proliferation measured by incorporation of [3H]thymidine in lymphocytes with Phytohemagglutininin at a concentration of 0.125 ug with compound at 400 uM.
The species entered for assay [9] is Homo sapiens. Put plainly: Mitogen-induced human lymphocyte proliferation measured by incorporation of [3H]-thymidine in lymphocytes with Phytohemagglutininin at a concentration of 0.125 ug with compound at 50 uM.
The species named for assay [10] is Homo sapiens. Put plainly: Mitogen-induced human lymphocyte proliferation measured by incorporation of [3H]thymidine in lymphocytes with Concanavalin A (Con A) at a concentration of 0.5 ug with compound at 0.1 uM.
The species named for assay [11] is Homo sapiens. Put plainly: Mitogen-induced human lymphocyte proliferation measured by incorporation of [3H]thymidine in lymphocytes with Concanavalin A (Con A) at a concentration of 0.5 ug with out compound.
Assay [12] is filed under the species Homo sapiens. As to the kind of experiment: Mitogen-induced human lymphocyte proliferation measured by incorporation of [3H]thymidine in lymphocytes with Concanavalin A (Con A) at a concentration of 0.5 ug with compound at 10 uM.
For assay [13], the species on record is Homo sapiens. Put plainly: Mitogen-induced human lymphocyte proliferation measured by incorporation of [3H]thymidine in lymphocytes with Concanavalin A (Con A) at a concentration of 0.5 ug with compound at 50 uM.
The species named for assay [14] is Homo sapiens. Put plainly: Mitogen-induced human lymphocyte proliferation measured by incorporation of [3H]thymidine in lymphocytes with Concanavalin A (Con A) at a concentration of 0.5 ug with compound at 1 uM.
For assay [15], the species on record is Homo sapiens. Put plainly: Mitogen-induced human lymphocyte proliferation measured by incorporation of [3H]thymidine in lymphocytes with Concanavalin A at a concentration of 0.5 ug with compound at 400 uM.
The species entered for assay [16] is Homo sapiens. Put plainly: Mitogen-induced human lymphocyte proliferation measured by incorporation of [3H]thymidine in lymphocytes with Phytohemagglutininin at a concentration of 0.125 ug with compound at 0.1 uM.
The species named for assay [17] is Homo sapiens. As to the kind of experiment: Mitogen-induced human lymphocyte proliferation measured by incorporation of [3H]thymidine in lymphocytes with Phytohemagglutininin at a concentration of 0.125 ug with compound at 1 uM.
For assay [18], the species on record is Homo sapiens. Put plainly: Mitogen-induced human lymphocyte proliferation measured by incorporation of [3H]thymidine in lymphocytes with Phytohemagglutininin at a concentration of 0.125 ug with compound at 10 uM.
The species entered for assay [19] is Homo sapiens. As to the kind of experiment: Mitogen-induced human lymphocyte proliferation measured by incorporation of [3H]thymidine in lymphocytes with Concanavalin A at a concentration of 0.25 ug with compound at 400 uM.
The species named for assay [20] is Homo sapiens. As to the kind of experiment: Mitogen-induced human lymphocyte proliferation measured by incorporation of [3H]-thymidine in lymphocytes with Pokeweed mitogen at a concentration of 1/2500 ug with compound at 1 uM.
The species named for assay [21] is Homo sapiens. As to the kind of experiment: Mitogen-induced human lymphocyte proliferation measured by incorporation of [3H]thymidine in lymphocytes with Phytohemagglutininin at a concentration of 0.25 ug with out compound.
Assay [22] is filed under the species Homo sapiens. As to the kind of experiment: Mitogen-induced human lymphocyte proliferation measured by incorporation of [3H]thymidine in lymphocytes with Concanavalin A (Con A) at a concentration of 0.25 ug with compound at 0.1 uM.
For assay [23], the species on record is Homo sapiens. As to the kind of experiment: Mitogen-induced human lymphocyte proliferation measured by incorporation of [3H]thymidine in lymphocytes with Concanavalin A (Con A) at a concentration of 0.25 ug with compound at 10 uM.
The species entered for assay [24] is Homo sapiens. As to the kind of experiment: Mitogen-induced human lymphocyte proliferation measured by incorporation of [3H]thymidine in lymphocytes with Concanavalin A (Con A) at a concentration of 0.25 ug with compound at 50 uM.
For assay [25], the species on record is Homo sapiens. Put plainly: Mitogen-induced human lymphocyte proliferation measured by incorporation of [3H]thymidine in lymphocytes with Concanavalin A (Con A) at a concentration of 0.25 ug with compound at 1 uM.
The species entered for assay [26] is Homo sapiens. As to the kind of experiment: Mitogen-induced human lymphocyte proliferation measured by incorporation of [3H]thymidine in lymphocytes with Concanavalin A (Con A) at a concentration of 0.25 ug with out compound.
For assay [27], the species on record is Homo sapiens. As to the kind of experiment: Mitogen-induced human lymphocyte proliferation measured by incorporation of [3H]thymidine in lymphocytes with Phytohemagglutininin at a concentration of 0.25 ug with compound at 10 uM.
Assay [28] is filed under the species Homo sapiens. As to the kind of experiment: Mitogen-induced human lymphocyte proliferation measured by incorporation of [3H]thymidine in lymphocytes with Phytohemagglutininin at a concentration of 0.25 ug with compound at 1 uM.
The species named for assay [29] is Homo sapiens. As to the kind of experiment: Mitogen-induced human lymphocyte proliferation measured by incorporation of [3H]thymidine in lymphocytes with Phytohemagglutininin at a concentration of 0.25 ug with compound at 400 uM.
The species entered for assay [30] is Homo sapiens. Put plainly: Mitogen-induced human lymphocyte proliferation measured by incorporation of [3H]thymidine in lymphocytes with Phytohemagglutininin at a concentration of 0.25 ug with compound at 50 uM.
For assay [31], the species on record is Homo sapiens. As to the kind of experiment: Mitogen-induced human lymphocyte proliferation measured by incorporation of [3H]-thymidine in lymphocytes with Phytohemagglutininin at a concentration of 0.25 ug with compound at 0.1 uM.
The species entered for assay [32] is Homo sapiens. As to the kind of experiment: Mitogen-induced human lymphocyte proliferation measured by incorporation of [3H]thymidine in lymphocytes with Pokeweed mitogen at a concentration of 1/5000 ug with compound at 400 uM.
Assay [33] is filed under the species Homo sapiens. As to the kind of experiment: Mitogen-induced human lymphocyte proliferation measured by incorporation of [3H]thymidine in lymphocytes with Pokeweed mitogen at a concentration of 1/5000 ug with compound at 10 uM.
For assay [34], the species on record is Homo sapiens. As to the kind of experiment: Mitogen-induced human lymphocyte proliferation measured by incorporation of [3H]thymidine in lymphocytes with Pokeweed mitogen at a concentration of 1/5000 ug with compound at 1 uM.
The species named for assay [35] is Homo sapiens. As to the kind of experiment: Mitogen-induced human lymphocyte proliferation measured by incorporation of [3H]thymidine in lymphocytes with Pokeweed mitogen at a concentration of 1/5000 ug with out compound.
The species named for assay [36] is Homo sapiens. Put plainly: Mitogen-induced human lymphocyte proliferation measured by incorporation of [3H]thymidine in lymphocytes with Pokeweed mitogen at a concentration of 1/5000 ug with compound at 0.1 uM.
For assay [37], the species on record is Homo sapiens. As to the kind of experiment: Mitogen-induced human lymphocyte proliferation measured by incorporation of [3H]thymidine in lymphocytes with Phytohemagglutininin at a concentration of 0.125 ug with compound at 50 uM.
The species named for assay [38] is Homo sapiens. Put plainly: Mitogen-induced human lymphocyte proliferation measured by incorporation of [3H]thymidine in lymphocytes with Phytohemagglutininin at a concentration of 0.25 ug with compound at 0.1 uM.
For assay [39], the species on record is Homo sapiens. As to the kind of experiment: Mitogen-induced human lymphocyte proliferation measured by incorporation of [3H]-thymidine in lymphocytes with Pokeweed mitogen at a concentration of 1/5000 ug with compound at 50 uM.

Regarding `NC(=O)CNC(=O)c1nn(C2O[C@H](CO)[C@@H](O)[C@H]2O)c2nc(N)[nH]c(=O)c12` (stereo partly specified), the Incorporation was 42288 in the assay listed under Homo sapiens [1]; 40023 in the assay listed under Homo sapiens [2]; 39719 in the assay filed under Homo sapiens [3]; 44370 in the assay listed under Homo sapiens [4]; 39468 in the assay filed under Homo sapiens [5]; 44670 in the assay listed under Homo sapiens [6]. For the same compound, the Incorporation in the assay listed under Homo sapiens [7] is 35075; in the assay filed under Homo sapiens [8] it was 66017; in the assay filed under Homo sapiens [9] it was 50056; in the assay filed under Homo sapiens [10] it was 43954; in the assay listed under Homo sapiens [11], 43401; in the assay listed under Homo sapiens [12], 46662. Also, the Incorporation came to 44360 in the assay filed under Homo sapiens [13]; 40503 in the assay listed under Homo sapiens [14]; 43649 in the assay listed under Homo sapiens [15]; 27956 in the assay listed under Homo sapiens [16]; 32413 in the assay listed under Homo sapiens [17]; 47343 in the assay filed under Homo sapiens [18].
For `NC(=O)CC[C@H](NC(=O)c1nn(C2O[C@H](CO)[C@@H](O)[C@H]2O)c2nc(N)[nH]c(=O)c12)C(N)=O` (stereo partly specified), the Incorporation is reported as 29854 in the assay filed under Homo sapiens [2]; 44234 in the assay listed under Homo sapiens [3]; 24167 in the assay filed under Homo sapiens [19]; 45049 in the assay listed under Homo sapiens [4]; 39260 in the assay listed under Homo sapiens [20]; 40326 in the assay listed under Homo sapiens [5]. Also, the Incorporation in the assay filed under Homo sapiens [21] is 57799; in the assay listed under Homo sapiens [6], 46067; in the assay listed under Homo sapiens [22], 26181; in the assay filed under Homo sapiens [23], 31799; in the assay filed under Homo sapiens [24], 28119; in the assay listed under Homo sapiens [25], 30068. Also, the Incorporation in the assay listed under Homo sapiens [26] was 25758; in the assay listed under Homo sapiens [27], 48588; in the assay filed under Homo sapiens [28], 50331; in the assay listed under Homo sapiens [29] it was 39824; in the assay listed under Homo sapiens [30] it was 43877; in the assay filed under Homo sapiens [31], 49448.
On to `N=C(N)NCCC[C@H](NC(=O)[C@H](Cc1ccccc1)NC(=O)c1nn(C2O[C@H](CO)[C@@H](O)[C@H]2O)c2nc(N)[nH]c(=O)c12)C(N)=O` (stereo partly specified), for which the Incorporation was found to be 8214 in the assay listed under Homo sapiens [32]; 8734 in the assay listed under Homo sapiens [33]; 8437 in the assay filed under Homo sapiens [34]; 7043 in the assay listed under Homo sapiens [35]; 11906 in the assay listed under Homo sapiens [36]; 18470 in the assay filed under Homo sapiens [1]. Moreover, the Incorporation amounted to 18394 in the assay filed under Homo sapiens [2]; 19755 in the assay filed under Homo sapiens [3]; 18784 in the assay filed under Homo sapiens [4]; 15723 in the assay listed under Homo sapiens [5]; 35768 in the assay filed under Homo sapiens [21]; 17344 in the assay listed under Homo sapiens [6]. For the same compound, the Incorporation in the assay filed under Homo sapiens [7] amounted to 23120; in the assay listed under Homo sapiens [37], 21841; in the assay listed under Homo sapiens [8] it was 26854; in the assay filed under Homo sapiens [10] it was 43850; in the assay filed under Homo sapiens [11], 35226; in the assay listed under Homo sapiens [12] it was 41908. Moreover, the Incorporation in the assay filed under Homo sapiens [13] was found to be 36977; in the assay listed under Homo sapiens [14], 36088; in the assay listed under Homo sapiens [15], 30792; in the assay filed under Homo sapiens [16], 22401; in the assay listed under Homo sapiens [17], 19743; in the assay listed under Homo sapiens [38] it was 38673. Besides, the Incorporation in the assay listed under Homo sapiens [27] is 36688; in the assay listed under Homo sapiens [28], 46087; in the assay listed under Homo sapiens [29], 33862; in the assay listed under Homo sapiens [30], 37174; in the assay listed under Homo sapiens [18] it was 36645; in the assay listed under Homo sapiens [39], 9960.
